{
  "source": "patent US12582638B2",
  "about": "“Pharmaceutical composition for treating cancer, containing mTOR-signaling inhibitor as active ingredient” (KOREA ADVANCED INSTITUTE OF SCIENCE AND TECHNOLOGY, priority 2020, dated 2026)",
  "assay_type_in_all_cases": "cell-based, human",
  "key": {"p-AMPK, LC3, p-ULK1": {"system": "p-AMPK, LC3, p-ULK1", "experiment": "Autophagy assay, western blot, HCT116", "details": "0, 5, and 10 μM, FIG. 8", "experimental": "HCT116 cells treated with various concentration (0, 5, and 10 μM) of lomitapide were analyzed for change in cell autophagy-related cell signaling pathway by western blotting. To this end, the supernatant obtained in Example 3 was loaded onto 10% SDS-PAGE gel. The proteins thus separated were blotted onto a PVDF membrane. Then, the blots were incubated with anti-p-AMPK, anti-LC3, anti-p-ULK1 antibodies (Cell Signaling Technology, Massachusetts, USA) at 4° C. for 12 hours. Afterward, the blots were washed with TBST (a mixture of tris-buffered saline (TBS) and Tween 20), incubated with horseradish peroxidase-conjugated secondary antibody (Cell signaling) at 37° C. for 1 hour, and washed, followed by detecting enhanced chemiluminescence (ECL; Amersham)."}, "HT29": {"system": "HT29", "experiment": "Viability assay for lomitapide-treated colorectal cells (CellTiter-Glo, 24)", "details": "0, 1, 2, 5, and 10 μM, dose-dependent", "experimental": "(§1) NCM460, HCT116, HT29, and SW480 cell lines were each seeded at a density of 10^4 cells/well into 96-well plates and incubated 37° C. for 24 hours before treatment with various concentrations (0, 1, 2, 5, and 10 μM) of lomitapide (Sigma Aldrich, Missouri, USA). After treatment of the cells with lomitapide at 37° C. for 24 in a 5% CO2 atmosphere, 100 μL of an assay reagent (CellTiter-Glo® Reagent) was added to each well. Then, luminescence was read using VICTOR X Multilabel Reader (PerkinElmer, Massachusetts, USA) and used to calculate cell viability (%). Results are depicted in FIGS. 2 to 4."}, "SW480": {"system": "SW480", "experiment": "Viability assay for lomitapide-treated colorectal cells (CellTiter-Glo, 24)", "details": "0, 1, 2, 5, and 10 μM, dose-dependent", "experimental": "as §1"}, "HCT116": {"system": "HCT116", "experiment": "Viability assay for lomitapide-treated colorectal cells (CellTiter-Glo, 24)", "experimental": "as §1"}, "[1]": {"system": "colorectal cancer patient-derived organoids", "experiment": "Viability assay for organoids derived from colorectal cancer patients (imaging based)", "details": "two colorectal cancer patient-derived organoids; 72 hours; FIG. 20", "experimental": "Two-type colorectal cancer patient-derived organoids (organoid from males at 01-46 of age and organoid from females at 02-74 of age) were treated with lomitapide and assayed for viability as follows.\nOrganoids derived from colorectal cancer patients were cultured for 5-7 days on 48-well plates (SPL, cat 32048).\nThe organoids were separated from the plates by pipetting with 200 μL of Dulbecco's phosphate-buffered saline (DPBS; Welgene LB001-02) and transferred to new tubes.\nFor staining, the separated organoids and Hoechst (Thermo, #H-1399) were added at a ratio of 1:2,000 to a culture medium and incubated for 30 minutes at 37° C. in a 5% CO2 incubator. […]\nFollowing the dispense, the number, state, and area of organoids were measured through DAPI signals with the aid of the high-contents imaging-based screening device Cytation 5 (Biotek).\nSubsequently, organoid areas were monitored three times every 24 hours for 72 hours without changing the culture medium.\nThe effectiveness of the drug was calculated by applying the raw data derived from Cytation 5 to the following formulas. […]\nEach organoid stained with Hoechst was measured for area (μm^2) by using Cytation 5, and areas of the all organoids in each well were summed.\nThe difference between the organoid area after 72 hours of drug treatment and the organoid area at the first 0 hour was calculated. […]"}, "p-S6K, p-S6, LC3 [2]": {"system": "p-S6K, p-S6, LC3", "experiment": "Cell signaling assay, western blot, HT29", "details": "0, 5, and 10 μM, FIG. 7b", "experimental": "(§2) Cells treated with various concentrations (0, 5, and 10 μM) of lomitapide were lysed with RIPA buffer containing a protease-inhibitor cocktail. The whole-cell lysate was incubated on ice for 30 minutes. After centrifugation at 4° C. and 13,300×g for 15 minutes, the supernatant was collected. For use as controls, HCT116, SW480, HT29, MDA-MB-231, and MDA-MB-468 cells were treated with 1 μM of torin, known as an mTOR inhibitor.\n(§3) For western blot analysis, the supernatant was loaded onto 10% SDS-PAGE gel. The separated proteins were blotted onto a PVDF membrane. Then, the blots were incubated with antibodies at 4° C. for 12 hours as follows (Table 2).\n(§4) Then, the blots were washed with TBST (a mixture of tris-buffered saline (TBS) and Tween 20), incubated with horseradish peroxidase-conjugated secondary antibody (Cell signaling) at 37° C. for 1 hour, and washed, followed by detecting enhanced chemiluminescence (ECL; Amersham)."}, "HCT116 cells": {"system": "HCT116 cells", "experiment": "Cell colony forming assay (crystal violet)", "details": "5 μM, 48 hours, vs wells treated without lomitapide", "experimental": "To examine relationship between lomitapide and cancer cell colony forming rate in HCT116 cells, cancer cell colony forming rates were measured after addition of limitapide to HCT116 cells cultured in wells.\nHCT116 cells were seeded at a density of 10^5 cells/well into 12-well plates and incubated 37° C. for 24 hours. Subsequently, the cells were incubated with 0 and 5 μM lomitapide at 37° C. for 48 hours in a 5% CO2 atmosphere. Then, 500 μL of crystal violet was added to each well and incubated at room temperature for 10 minutes to stain the cells. From the staining data, the cells were analyzed for growth rate."}, "p-S6K, p-S6, LC3 [3]": {"system": "p-S6K, p-S6, LC3", "experiment": "Cell signaling assay, western blot, SW480", "details": "0, 5, and 10 μM, FIG. 7a", "experimental": "as §2, §3, §4"}},
  "data": [
    {"smiles": "O=C(NC1CCN(CCCCC2(C(=O)NCC(F)(F)F)c3ccccc3-c3ccccc32)CC1)c1ccccc1-c1ccc(C(F)(F)F)cc1", "note": "[lomitapide, N-(2,2,2-trifluoroethyl)-9-[4-[4-[[[4′-(trifluoromethyl)[1,1′-biphenyl]2-yl]carbonyl]amino]-1-piperidinyl]butyl]-9H-fluoren-9-carboxamide]", "values": [
      {"measurement": "conversion from LC3I into LC3II", "setting": "p-AMPK, LC3, p-ULK1", "value": "significantly increased induction of conversion from LC3I into LC3II"},
      {"measurement": "phosphorylation level of AMPK", "setting": "p-AMPK, LC3, p-ULK1; dose-dependent", "value": "remarkably increased"},
      {"measurement": "cell viability", "setting": "HT29", "value": "reduced the viability"},
      {"measurement": "cell viability", "setting": "SW480", "value": "reduced the viability"},
      {"measurement": "cell viability", "setting": "HCT116; HCT116, 0, 1, 2, 5, and 10 μM, dose-dependent", "value": "reduced the viability"},
      {"measurement": "cell viability of cancer cells compared to normal cells", "setting": "HCT116; HCT116 vs normal human colonic epithelial cells (NCM460), FIG. 2", "value": "decreased cell viability"},
      {"measurement": "organoid viability", "setting": "[1]", "value": "decreased in viability with the increase of the dose"},
      {"measurement": "conversion from LC3I into LC3II", "setting": "p-S6K, p-S6, LC3 [2]", "value": "increased induction of conversion from LC3I into LC3II"},
      {"measurement": "phosphorylation levels of target proteins (p-S6K and p-S6)", "setting": "p-S6K, p-S6, LC3 [2]", "value": "remarkably decreased phosphorylation levels"},
      {"measurement": "growth rate (colony forming)", "setting": "HCT116 cells", "value": "remarkably lower in growth rate"},
      {"measurement": "conversion from LC3I into LC3II", "setting": "p-S6K, p-S6, LC3 [3]", "value": "increased induction of conversion from LC3I into LC3II"},
      {"measurement": "phosphorylation levels of target proteins (p-S6K and p-S6)", "setting": "p-S6K, p-S6, LC3 [3]", "value": "remarkably decreased phosphorylation levels"}
    ]}
  ]
}
